Measurements published in PMC5218480 (PLoS ONE, 2017).

Test system: MV-4-11 cells
Experiment: Gene expression microarray analysis (Affymetrix PrimeView) and GSEA
Type: cell-based, human
Design: RFU PODN (11730768_x_at) / Fold change /veh PODN (11730768_x_at) / RFU LINC00158 (11744669_a_at) / Fold change /veh LINC00158 (11744669_a_at) / RFU DUSP10 (11751237_a_at) / Fold change /veh DUSP10 (11751237_a_at) / RFU ID3 (11757404_x_at) / Fold change /veh ID3 (11757404_x_at) / RFU PLEKHG5 (11737974_s_at) / Fold change /veh PLEKHG5 (11737974_s_at) / RFU LRRC4B (11730491_at) / Fold change /veh LRRC4B (11730491_at) / RFU GIMAP4 (11747438_a_at) / Fold change /veh GIMAP4 (11747438_a_at) / RFU KRT8 (11758183_x_at) / Fold change /veh KRT8 (11758183_x_at) / RFU CNN1 (11734310_a_at) / Fold change /veh CNN1 (11734310_a_at) / RFU VPS37D (11726825_at) / Fold change /veh VPS37D (11726825_at) / RFU C10orf10 (11716522_x_at) / Fold change /veh C10orf10 (11716522_x_at) / RFU KIR2DL2 /// KIR2DL4 /// KIR2DL5A /// KIR2DL5B /// KIR2DS1 /// KIR2DS2 /// KIR2DS3 /// KIR2DS4 /// KIR3DL3 /// KIR3DL3 /// KIR3DS1 (11738374_at) / Fold change /veh KIR2DL2 /// KIR2DL4 /// KIR2DL5A /// KIR2DL5B /// KIR2DS1 /// KIR2DS2 /// KIR2DS3 /// KIR2DS4 /// KIR3DL3 /// KIR3DL3 /// KIR3DS1 (11738374_at) / RFU C1QL1 (11718748_at) / Fold change /veh C1QL1 (11718748_at) / RFU TMPRSS4 (11747572_a_at) / Fold change /veh TMPRSS4 (11747572_a_at) / RFU HAMP (11756126_x_at) / Fold change /veh HAMP (11756126_x_at) / RFU RNFT2 (11725882_a_at) / Fold change /veh RNFT2 (11725882_a_at) / RFU NR4A2 (11747474_a_at) / Fold change /veh NR4A2 (11747474_a_at) / RFU ABCC12 (11746883_a_at) / Fold change /veh ABCC12 (11746883_a_at) / RFU TMEM136 (11760407_x_at) / Fold change /veh TMEM136 (11760407_x_at) / RFU CLDN22 /// WWC2 (11732394_at) / Fold change /veh CLDN22 /// WWC2 (11732394_at) / RFU HLA-DPB1 (11760878_x_at) / Fold change /veh HLA-DPB1 (11760878_x_at) / RFU SPINT1 (11716480_a_at) / Fold change /veh SPINT1 (11716480_a_at) / RFU GAP43 (11754022_s_at) / Fold change /veh GAP43 (11754022_s_at) / RFU A4GNT (11735810_at) / Fold change /veh A4GNT (11735810_at) / RFU PRB3 (11715151_x_at) / Fold change /veh PRB3 (11715151_x_at) / RFU TUBB4B (11761932_at) / Fold change /veh TUBB4B (11761932_at) / RFU CAPN14 (11732068_a_at) / Fold change /veh CAPN14 (11732068_a_at) / RFU TMCC2 (11721928_a_at) / Fold change /veh TMCC2 (11721928_a_at) / RFU IRGQ (11745062_a_at) / Fold change /veh IRGQ (11745062_a_at) / RFU FAM174B (11720279_a_at) / Fold change /veh FAM174B (11720279_a_at) / RFU TMPRSS4 (11748680_a_at) / Fold change /veh TMPRSS4 (11748680_a_at) / RFU FAM212B (11763350_a_at) / Fold change /veh FAM212B (11763350_a_at) / RFU PLEKHG5 (11743358_a_at) / Fold change /veh PLEKHG5 (11743358_a_at) / RFU ZSCAN30 (11745921_a_at) / Fold change /veh ZSCAN30 (11745921_a_at) / RFU CMKLR1 (11741424_a_at) / Fold change /veh CMKLR1 (11741424_a_at) / RFU LOC101060620 /// MAPK8IP1 (11723275_at) / Fold change /veh LOC101060620 /// MAPK8IP1 (11723275_at) / RFU SPTSSB (11747773_x_at) / Fold change /veh SPTSSB (11747773_x_at) / RFU PRSS12 (11739890_at) / Fold change /veh PRSS12 (11739890_at) / RFU BIN1 (11741810_x_at) / Fold change /veh BIN1 (11741810_x_at) / RFU WNT11 (11732464_a_at) / Fold change /veh WNT11 (11732464_a_at) / RFU C10orf10 (11716521_a_at) / Fold change /veh C10orf10 (11716521_a_at) / RFU C5orf56 (11738089_at) / Fold change /veh C5orf56 (11738089_at) / RFU CYB561 (11721691_x_at) / Fold change /veh CYB561 (11721691_x_at) / RFU ANKRD19P (11752326_a_at) / Fold change /veh ANKRD19P (11752326_a_at) / RFU OR2T12 /// OR2T33 /// OR2T8 (11738714_s_at) / Fold change /veh OR2T12 /// OR2T33 /// OR2T8 (11738714_s_at) / RFU VCAN (11748164_a_at) / Fold change /veh VCAN (11748164_a_at) / RFU JSRP1 (11732532_at) / Fold change /veh JSRP1 (11732532_at) / RFU KRTAP10-11 (11738290_x_at) / Fold change /veh KRTAP10-11 (11738290_x_at) / RFU MYO3A (11730013_a_at) / Fold change /veh MYO3A (11730013_a_at) / RFU EBF3 (11725865_a_at) / Fold change /veh EBF3 (11725865_a_at) / RFU CAMK2N1 (11719241_x_at) / Fold change /veh CAMK2N1 (11719241_x_at) / RFU C5orf56 (11738088_a_at) / Fold change /veh C5orf56 (11738088_a_at) / RFU OLFML3 (11715873_a_at) / Fold change /veh OLFML3 (11715873_a_at) / RFU LOC100653217 /// NTM (11731650_a_at) / Fold change /veh LOC100653217 /// NTM (11731650_a_at) / RFU MAPK11 (11762145_a_at) / Fold change /veh MAPK11 (11762145_a_at) / RFU FIZ1 (11724087_x_at) / Fold change /veh FIZ1 (11724087_x_at) / RFU OASL (11726364_x_at) / Fold change /veh OASL (11726364_x_at) / RFU SOX15 (11748057_x_at) / Fold change /veh SOX15 (11748057_x_at) / RFU CD79A (11719716_a_at) / Fold change /veh CD79A (11719716_a_at) / RFU HIST1H1D (11736915_at) / Fold change /veh HIST1H1D (11736915_at) / RFU CASKIN2 (11723855_a_at) / Fold change /veh CASKIN2 (11723855_a_at) / RFU LOC730098 (11760151_x_at) / Fold change /veh LOC730098 (11760151_x_at) / RFU OR4N2 (11742367_at) / Fold change /veh OR4N2 (11742367_at) / RFU PRRT2 (11749266_a_at) / Fold change /veh PRRT2 (11749266_a_at) / RFU SNX32 (11753110_a_at) / Fold change /veh SNX32 (11753110_a_at) / RFU CDHR5 (11726645_a_at) / Fold change /veh CDHR5 (11726645_a_at) / RFU RCAN1 (11760418_a_at) / Fold change /veh RCAN1 (11760418_a_at) / RFU FAM167A (11723789_a_at) / Fold change /veh FAM167A (11723789_a_at) / RFU FAM26E (11764081_at) / Fold change /veh FAM26E (11764081_at) / RFU ISYNA1 (11749810_s_at) / Fold change /veh ISYNA1 (11749810_s_at) / RFU ACY1 (11761880_at) / Fold change /veh ACY1 (11761880_at) / RFU 11764098_at / Fold change /veh 11764098_at / RFU SAMD14 (11745864_x_at) / Fold change /veh SAMD14 (11745864_x_at) / RFU NPB (11741838_a_at) / Fold change /veh NPB (11741838_a_at) / RFU TMPRSS6 (11731388_a_at) / Fold change /veh TMPRSS6 (11731388_a_at) / RFU KRTAP10-2 (11738614_at) / Fold change /veh KRTAP10-2 (11738614_at) / RFU ARHGAP8 /// PRR5-ARHGAP8 (11727945_x_at) / Fold change /veh ARHGAP8 /// PRR5-ARHGAP8 (11727945_x_at) / RFU KRTAP5-7 /// NADSYN1 (11734609_at) / Fold change /veh KRTAP5-7 /// NADSYN1 (11734609_at) / RFU RASL12 (11751679_a_at) / Fold change /veh RASL12 (11751679_a_at) / RFU CDKN2B (11736163_a_at) / Fold change /veh CDKN2B (11736163_a_at) / RFU PRF1 (11729649_at) / Fold change /veh PRF1 (11729649_at) / RFU, ZNF638 /// ZNF638-IT1 / Fold change vs veh, ZNF638 /// ZNF638-IT1 / RFU, PANK3 / Fold change vs veh, PANK3 / RFU, SH3YL1 / Fold change vs veh, SH3YL1 / RFU, ZEB2 / Fold change vs veh, ZEB2 / RFU, NRIP1 / Fold change vs veh, NRIP1 / RFU, PTTG1IP / Fold change vs veh, PTTG1IP / RFU, CAPN2 / Fold change vs veh, CAPN2 / RFU, MED14 / Fold change vs veh, MED14 / RFU, SNORA58 / Fold change vs veh, SNORA58 / RFU, C1orf63 / Fold change vs veh, C1orf63 / RFU, LRRFIP1 / Fold change vs veh, LRRFIP1 / RFU, NDUFAF7 / Fold change vs veh, NDUFAF7 / RFU, SLC12A2 / Fold change vs veh, SLC12A2 / RFU, IBTK / Fold change vs veh, IBTK / RFU, ESF1 / Fold change vs veh, ESF1 / Fold change vs veh, TMEM50B / RFU, TAOK1 / Fold change vs veh, TAOK1 / RFU, ACBD3 / Fold change vs veh, ACBD3 / RFU, TMA16 / Fold change vs veh, TMA16 / RFU, RWDD3 / Fold change vs veh, RWDD3 / RFU, BCAT1 / Fold change vs veh, BCAT1 / RFU, EDEM3 / Fold change vs veh, EDEM3 / RFU, TMEM33 / Fold change vs veh, TMEM33 / RFU, WDR75 / Fold change vs veh, WDR75 / RFU, AHCTF1 / Fold change vs veh, AHCTF1 / RFU, TFRC / Fold change vs veh, TFRC / RFU, ZDHHC17 / Fold change vs veh, ZDHHC17 / RFU, NOM1 / Fold change vs veh, NOM1 / RFU, ARL8B / Fold change vs veh, ARL8B / RFU, ZBTB11 / Fold change vs veh, ZBTB11 / RFU, TAMM41 / Fold change vs veh, TAMM41 / RFU, KIAA1704 /// LOC100996395 / Fold change vs veh, KIAA1704 /// LOC100996395 / RFU, ING1 / Fold change vs veh, ING1 / RFU, TRMT61B / Fold change vs veh, TRMT61B / RFU, FUBP3 / Fold change vs veh, FUBP3 / RFU, TP53 / Fold change vs veh, TP53 / RFU, TNKS2 / Fold change vs veh, TNKS2 / RFU, ZFP14 / Fold change vs veh, ZFP14 / RFU, ACTR2 / Fold change vs veh, ACTR2 / RFU, PPP3R1 / Fold change vs veh, PPP3R1 / RFU, PIK3R1 / Fold change vs veh, PIK3R1 / RFU, HNRNPA1 / Fold change vs veh, HNRNPA1 / RFU, RNF170 / Fold change vs veh, RNF170 / RFU, ZNF28 / Fold change vs veh, ZNF28 / RFU, RNGTT / Fold change vs veh, RNGTT / RFU, OGT / Fold change vs veh, OGT / RFU, BRD1 / Fold change vs veh, BRD1 / RFU, MARS / Fold change vs veh, MARS / RFU, ZNF655 / Fold change vs veh, ZNF655 / RFU, FAHD1 / Fold change vs veh, FAHD1 / RFU, BDP1 / Fold change vs veh, BDP1 / RFU, LRRCC1 / Fold change vs veh, LRRCC1 / RFU, ARID1A / Fold change vs veh, ARID1A / RFU, ZNF146 / Fold change vs veh, ZNF146 / RFU, ZNF330 / Fold change vs veh, ZNF330 / RFU, GPN3 / Fold change vs veh, GPN3 / RFU, C9orf123 / Fold change vs veh, C9orf123 / RFU, N4BP2L2 / Fold change vs veh, N4BP2L2 / RFU, ARFIP1 / Fold change vs veh, ARFIP1 / RFU, FAM179B / Fold change vs veh, FAM179B / RFU, BCL10 / Fold change vs veh, BCL10 / RFU, UHRF1BP1L / Fold change vs veh, UHRF1BP1L / RFU, BET1 / Fold change vs veh, BET1 / RFU, CNOT2 / Fold change vs veh, CNOT2 / RFU, ZNF268 / Fold change vs veh, ZNF268 / Fold change vs veh, ZNF507 / RFU, DGCR2 / Fold change vs veh, DGCR2 / RFU, WDSUB1 / Fold change vs veh, WDSUB1 / Fold change vs veh, HSP90B1 /// MIR3652 / RFU, ADSS / Fold change vs veh, ADSS / RFU, GK / Fold change vs veh, GK / RFU, ZNF148 / Fold change vs veh, ZNF148 / RFU, TAF9 / Fold change vs veh, TAF9 / RFU, SLC1A5 / Fold change vs veh, SLC1A5 / RFU, SLMO2 / Fold change vs veh, SLMO2 / RFU, ABCC4 / Fold change vs veh, ABCC4 / RFU, LOC101060439 /// RAP1B / Fold change vs veh, LOC101060439 /// RAP1B / RFU, RFX7 / Fold change vs veh, RFX7 / RFU, GTPBP10 / Fold change vs veh, GTPBP10 / RFU, CNEP1R1 / Fold change vs veh, CNEP1R1 / RFU, BIVM-ERCC5 /// ERCC5 / Fold change vs veh, BIVM-ERCC5 /// ERCC5 / RFU, ILF3 / Fold change vs veh, ILF3 / RFU 11762660_at / Fold change /veh 11762660_at / RFU VCAN (11757783_s_at) / Fold change /veh VCAN (11757783_s_at) / RFU DDX43 (11728927_at) / Fold change /veh DDX43 (11728927_at) / RFU KRT8 (11758188_x_at) / Fold change /veh KRT8 (11758188_x_at) / RFU NKD1 (11759106_at) / Fold change /veh NKD1 (11759106_at) / RFU SRD5A1 (11742802_a_at) / Fold change /veh SRD5A1 (11742802_a_at) / RFU TPSAB1 /// TPSB2 (11721975_s_at) / Fold change /veh TPSAB1 /// TPSB2 (11721975_s_at) / RFU GSTM3 (11746129_a_at) / Fold change /veh GSTM3 (11746129_a_at) / RFU IL23R (11737362_x_at) / Fold change /veh IL23R (11737362_x_at) / RFU TMEM51 (11727254_a_at) / Fold change /veh TMEM51 (11727254_a_at) / RFU PIWIL2 (11732686_x_at) / Fold change /veh PIWIL2 (11732686_x_at) / RFU ORM1 (11744905_x_at) / Fold change /veh ORM1 (11744905_x_at) / RFU CCDC152 (11743942_at) / Fold change /veh CCDC152 (11743942_at) / RFU ECM1 (11717891_a_at) / Fold change /veh ECM1 (11717891_a_at) / RFU IL23R (11748794_a_at) / Fold change /veh IL23R (11748794_a_at) / RFU TNFAIP8L3 (11732012_x_at) / Fold change /veh TNFAIP8L3 (11732012_x_at) / RFU MBOAT4 (11741988_at) / Fold change /veh MBOAT4 (11741988_at) / RFU 11764193_at / Fold change /veh 11764193_at / RFU TMEM53 (11763286_at) / Fold change /veh TMEM53 (11763286_at) / RFU MAGEB2 (11727129_at) / Fold change /veh MAGEB2 (11727129_at) / RFU TMEM200A (11744735_a_at) / Fold change /veh TMEM200A (11744735_a_at) / RFU CCDC152 (11751479_a_at) / Fold change /veh CCDC152 (11751479_a_at) / RFU FAM211A (11726209_a_at) / Fold change /veh FAM211A (11726209_a_at) / RFU RGS16 (11746705_a_at) / Fold change /veh RGS16 (11746705_a_at) / RFU VCAN (11755009_s_at) / Fold change /veh VCAN (11755009_s_at) / RFU RHOB (11743442_s_at) / Fold change /veh RHOB (11743442_s_at) / RFU RGS16 (11720943_a_at) / Fold change /veh RGS16 (11720943_a_at) / RFU RGS16 (11720944_at) / Fold change /veh RGS16 (11720944_at) / RFU, VPS4B / Fold change vs veh, VPS4B / RFU, CREB1 / Fold change vs veh, CREB1 / RFU, DNAJC13 / Fold change vs veh, DNAJC13 / RFU, GNAQ / Fold change vs veh, GNAQ / RFU, CDK5R1 / Fold change vs veh, CDK5R1 / RFU, ZRANB3 / Fold change vs veh, ZRANB3 / RFU, CUL4A / Fold change vs veh, CUL4A / RFU, CCNY / Fold change vs veh, CCNY / RFU, UFL1 / Fold change vs veh, UFL1 / RFU, COG3 / Fold change vs veh, COG3 / RFU, DIAPH2 / Fold change vs veh, DIAPH2 / RFU, SKA2 / Fold change vs veh, SKA2 / RFU, AFF3 / Fold change vs veh, AFF3 / RFU, LMF1 / Fold change vs veh, LMF1 / RFU, IPO11 / Fold change vs veh, IPO11 / RFU, DFFB / Fold change vs veh, DFFB / RFU, FOXP1 / Fold change vs veh, FOXP1 / RFU, CARD8 / Fold change vs veh, CARD8 / RFU, STRN3 / Fold change vs veh, STRN3 / RFU, ADK / Fold change vs veh, ADK / RFU, RASSF2 / Fold change vs veh, RASSF2 / RFU, WIPF1 / Fold change vs veh, WIPF1 / RFU, LARP1B / Fold change vs veh, LARP1B / RFU, RASA1 / Fold change vs veh, RASA1 / RFU, RB1 / Fold change vs veh, RB1 / RFU, PPFIA1 / Fold change vs veh, PPFIA1 / RFU, MAT2A / Fold change vs veh, MAT2A / RFU, CCT5 / Fold change vs veh, CCT5 / RFU, WDR92 / Fold change vs veh, WDR92 / RFU, CUX1 / Fold change vs veh, CUX1 / RFU, TTC7A / Fold change vs veh, TTC7A / RFU, TMEM135 / Fold change vs veh, TMEM135 / RFU, DEPTOR / Fold change vs veh, DEPTOR / RFU, CPM / Fold change vs veh, CPM / RFU, DNAJB6 / Fold change vs veh, DNAJB6 / RFU, CACNA2D3 / Fold change vs veh, CACNA2D3 / RFU, DTX4 / Fold change vs veh, DTX4 / RFU, TFCP2 / Fold change vs veh, TFCP2 / RFU, GMCL1 /// GMCL1P1 / Fold change vs veh, GMCL1 /// GMCL1P1 / RFU, AEBP2 / Fold change vs veh, AEBP2 / RFU, SNHG1 /// SNORD22 /// SNORD25 /// SNORD26 /// SNORD27 /// SNORD28 /// SNORD29 /// SNORD31 / Fold change vs veh, SNHG1 /// SNORD22 /// SNORD25 /// SNORD26 /// SNORD27 /// SNORD28 /// SNORD29 /// SNORD31 / Fold change (Aza/veh), C12orf56 (ProbeSet 11735607_a_at) / Fold change (ACY-1035/veh), C12orf56 (ProbeSet 11735607_a_at) / Fold change (Aza/veh), FGFR1OP (ProbeSet 11751329_s_at) / Fold change (ACY-1035/veh), FGFR1OP (ProbeSet 11751329_s_at) / Fold change (Aza/veh), VPS36 (ProbeSet 11739960_a_at) / Fold change (ACY-1035/veh), VPS36 (ProbeSet 11739960_a_at) / RFU SYPL1 (11715823_x_at) / Fold change /veh SYPL1 (11715823_x_at) / RFU IGFBP7 (11715501_s_at) / Fold change /veh IGFBP7 (11715501_s_at) / RFU REEP3 (11722064_at) / Fold change /veh REEP3 (11722064_at) / RFU IGLL1 (11728026_x_at) / Fold change /veh IGLL1 (11728026_x_at): dose or concentration left out as unconfirmed
Conditions: ProbeSet 11718977_a_at; LIST B

Q: Nc1ccc(-c2cccs2)cc1NC(=O)c1ccc2c(c1)cc(C1CC1)n2CCN1CCOCC1 [ACY-1035] was tested. Which “RFU, CAPN2” value did it give?
A: Its value is 162.48 RFU.
